Experiments:
[1] = Specific binding of 3H-labeled compound to membrane fraction prepared from rat dorsal root ganglion; conditions: 3H-labeled compound of Example 7, 37° C., 1 hour; unlabeled compound for non-specific binding; FIG. 2
Experimental: A binding property of a ^3H-labeled cyclic amine derivative (I) to each of membrane fractions prepared from various tissues of a rat was evaluated, and thus, a tissue containing a molecular target of the cyclic amine derivative (I) was clarified.
As the cyclic amine derivative (I), the compound of Example 7 was used.
Male SD rats (manufactured by Charles River Laboratories Japan, Inc.) of 7 weeks old were used. Rats were anesthetized with isoflurane, and euthanized by exsanguination from the abdominal aorta using a syringe having an inner wall treated with a heparin sodium injection (manufactured by AY Pharmaceuticals Co., Ltd.). […]
A homogenate sample of each tissue thus collected was prepared, using a homogenizer, by adding a homogenize buffer (sucrose (1 M), Tris-HCl (0.5 M), and 1× protease inhibitor cocktail (manufactured by Sigma Aldrich), pH 7.6) to the collected tissue. […] The resultant supernatant was ultracentrifuged at 100,000×g at 4° C. for 60 minutes, and the thus obtained precipitate was suspended in Krebs-Ringer bicarbonate buffer (manufactured by Sigma Aldrich) to quantitatively determine the amount of protein using a BCA protein assay kit (manufactured by Thermo Fisher Scientific K.K.). […]

[2] = tested on: sciatic nerve of a rat spinal nerve ligation model; experiment: Actin filament/actin monomer ratio in the sciatic nerve of rat spinal nerve ligation model; type: in vivo
Excerpt: The effect of the cyclic amine derivative (I) or a pharmacologically acceptable salt thereof on a ratio between the amount of actin filaments and the amount of actin monomers in the sciatic nerve of a rat spinal nerve ligation model was examined.
Male SD rats (manufactured by Charles River Laboratories Japan, Inc.) of 6 weeks old were used. Each rat spinal nerve ligation model was produced by resecting the spine vertebral arch by incision of the right lower back under isoflurane inhalation anesthesia, completely ligating L5 and L6 nerve roots of the spinal nerve, and then suturing the muscular layer and the skin. As a negative control (sham-operation group), the right L5 and L6 nerves were exposed, and then the muscular layer and the skin were sutured similarly without ligation. One week after the nerve ligation, the rats were used to perform the following experiment. […]
For quantitative determination of actin filaments and actin monomers, G-actin/F-actin in vivo assay kit (manufactured by Cytoskeleton Inc.) was used. […] The amount of actin in each of the actin monomer sample and the actin filament sample was measured by Western blotting. […] Luminescence intensity of a band corresponding to actin was quantitatively determined using Image Lab software (manufactured by Bio-Rad). […]

CN(C)C1CCN(C(=O)C[C@H](O)c2nccn2C)CC1 [Example 7, (S)-1-(4-(dimethylamino)piperidin-1-yl)-3-hydroxy-3-(1-methyl-1H-imidazol-2-yl)propan-1-one]
specific binding to the membrane fraction prepared from the dorsal root ganglion [1]: significant
actin filament/actin monomer ratio compared to the distilled water administration group ([2]; oral 60 mg/kg once a day for 2 days, sciatic nerve, p<0.025 Williams): significantly reduced
actin filament/actin monomer ratio ([2]; oral 6, 20 and 60 mg/kg once a day for 2 days, sciatic nerve 3 hours after last administration, FIG. 3b): reduced as the dose of the compound of Example 7 was increased

Reference: patent US12545668B2, “Cyclic amine derivative as agent for promoting advillin function, and novel cyclic amine derivative and pharmaceutical use thereof” (Toray Industries, Inc., priority 2018, dated 2026)
